The results in this text go back to US20110300246A1, “Herbal Extracts for Treatment of Diabetic Complications and Oxidative Stress” (priority 2010, published 2011).

For data set [1], the system named is bovine serum albumin (BSA)-AGEs formation. Kind of data set: Glucose and methylglyoxal induced BSA-AGEs formation in vitro (fluorescence). The format is biochemical. The following applies: BSA + 2 mM methylglyoxal + 200 mM glucose, 37° C., 7 days. As for the experimental part: Glucose and Methylglyoxal induced bovine serum albumin (BSA)-AGEs formation is used to test the inhibitory effects of the inventive single herbal extract and mixed herbal extracts on the formation of AGEs in vitro.
Methods: As a protein source, BSA (Sigma-Aldrich, St. Louis, Mo., USA) was dissolved in 50 mM phosphate buffer (pH 7.4) to a concentration of 10 mg/ml. As a sugar source, a mixture of 2 mM methylglyoxal and 200 mM glucose (sigma-Aldrich, St. Louis, Mo., USA) was used. This sugar mixture was added to the prepared BSA solution for use in tests. […] Aminoguanidine (AG), a positive control drug, was tested in the same manner except that AG was dissolved in distilled water. As a negative control group, a culture consisting of BSA, the sugar mixture and 10% Tween80 was cultured. As blanks to the control and test groups, the materials for the test group and the materials for the control group were used after preparation without incubation. Five samples for each group were used to reduce errors to the lowest possible extent. After 7 days incubation, the amounts of AGEs in test samples were determined by measuring the fluorescence at an emission wavelength of 440 nm and an excitation wavelength at 370 nm using a fluorescence Spectrophotometer. The inhibition (%) of the formation of AGEs was calculated according to the following equation:
Inhibition (%) of production=100−[(fluorescent intensity of test group−fluorescent intensity of blank to test group)/(fluorescent intensity of control group−fluorescent intensity of blank to control group)]×100.

For data set [2], the system named is STZ-diabetic rats. Description: Renal oxidative stress (SOD activity, MDA) in STZ-diabetic rats. Format: in vivo, rat. The following applies: renal cortical tissue, 12 weeks, mean ± SD, n=8. Here is the method:
(§1) Male Sprague-Dawley male rats, weighing 200-250 g, aged 8-10 weeks, were used. Diabetes was induced by administration of streptozotocin (STZ, Sigma-Aldrich, USA) in 0.1 mol/L sodium citrate (pH 4.5) at a dose of 55 mg/kg intraperitoneally. After 48 hours injection, blood glucose levels of the animals were examined using glucose meter. The induction of diabetes was confirmed when the blood glucose level was greater than 300 mg/dl. Animals were maintained in diabetic conditions for 2 weeks without any treatment and blood glucose was determined every week to ensure the subsistence of diabetes. Animals with uncertain blood glucose levels or blood glucose exceeding 600 mg/dl were excluded from the study.
HEM was suspended in 1% carboxymethylcellulose (CMC) before use. Aminogunidine was dissolved in water first and then added into 1% CMC before use. […] The diabetes-induced and the normal control groups consisted of 8 animals of each. […]
For measurements of SOD activity and MDA contents, the renal cortical tissues were homogenized in a buffer solution (0.25 M sucrose, 0.5 mM EDTA, 50 mM HEPES, protease inhibitors) on ice and centrifuged at 4° C. at 12,000 rpm for 20 min. The supernatants were collected and analyzed with corresponding assay kits (Nanjing Jiancheng Shengwu Yanjiu Suo, Nanjing, China) according to the manufacturer's instructions, […]

For data set [3], the system named is STZ-induced diabetic rats. Kind of data set: AGE-fluorescence in the pancreas of STZ-diabetic rats. The format is in vivo, rat. The following applies: 12 weeks treatment, FIG. 3. As for the experimental part: as §1, with “Animals with uncertain blood glucose levels or blood glucose exceeding 600 mg/dl were excluded from the study.” left out
Minced pancreatic tissue was delipidated with chloroform and methanol (2:1,v/v) overnight. […] The amounts of AGEs in these alkali-soluble samples were determined by measuring the fluorescence at an emission wavelength of 440 nm and an excitation wavelength at 370 nm using a fluorescence Spectrophotometer. A native bovine serum albumin (BSA) preparation (1 mg/ml of 0.1 N NaOH) was used as a standard, and its fluorescence intensity was defined as one arbitrary unit (AU). The fluorescence values of samples were measured at a protein concentration of 1 mg/ml and expressed in arbitrary unit (AU) compared with a native BSA preparation. Sample protein concentrations were determined using Bradford method.

Data set [4] deals with STZ-induced diabetic rats. Description: Immunohistochemical staining for insulin in pancreatic islets of STZ-diabetic rats. The following applies: 12 weeks treatment, FIG. 2. Format: in vivo, rat. Here is the method: as §1
(§2) HEM was suspended in 1% carboxymethylcellulose (CMC) before use. Aminogunidine was dissolved in water first and then added into 1% CMC before use. […] The diabetes-induced and the normal control groups consisted of 8 animals of each. The initial body weights and blood glucose levels of the diabetic animals were similar among the three groups. […] The normal control group and the diabetic control group were administered with equivalent volume of CMC daily for 12 weeks. The standard rat diet and water were available ad libitum throughout the entire treatment period. […]

Data set [5] relates to STZ-diabetic rats. Kind of data set: 24-hr urinary albumin excretion in STZ-diabetic rats. The format is in vivo, rat. The following applies: 12 weeks, P<0.01, FIG. 8. Here is the method: as §1
HEM was suspended in 1% carboxymethylcellulose (CMC) before use. Aminogunidine was dissolved in water first and then added into 1% CMC before use. […] The diabetes-induced and the normal control groups consisted of 8 animals of each. The initial body weights and blood glucose levels of the diabetic animals were similar among the three groups. […]
Development of albuminuria is a cardinal manifestation of glomerular injury and a pathological factor in the progression of renal dysfunction. […] The levels of urinary albumin were quantified using a commercial assay kit (Guangzhou WhiJa Technology, Inc. Guangzhou, China), according to the manufacturer's instructions.

The test system of data set [6] is STZ-diabetic rats. Kind of data set: Body weight gain and general well-being in STZ-diabetic rats, 12 weeks treatment. Format: in vivo, rat. Here is the method: as §1
HEM was suspended in 1% carboxymethylcellulose (CMC) before use. Aminogunidine was dissolved in water first and then added into 1% CMC before use. […] The diabetes-induced and the normal control groups consisted of 8 animals of each. The initial body weights and blood glucose levels of the diabetic animals were similar among the three groups. […] The normal control group and the diabetic control group were administered with equivalent volume of CMC daily for 12 weeks. […]
The general behavioral status of the animals (i.e. locomotor activity, alertness to environmental changes) was observed every day, and the body weight and food intake were measured weekly.

Data set [7] concerns STZ-diabetic rats. Description: AGE levels in the kidney cortex of STZ-diabetic rats. Format: in vivo, rat. The following applies: 12 weeks, mean ± SD, n=8. As for the experimental part: as §1, §2
Data set [8] concerns STZ-diabetic rats. Description: Fluorescent AGEs and CML-AGE in the descending aorta of STZ-diabetic rats. The format is in vivo, rat. The following applies: 12 weeks, FIG. 6 and FIG. 7. As for the experimental part:
as §1, §2

For the compound `N=C(N)NN` [Aminoguanidine, aminoguanidine], the “Inhibition (%) of the formation of AGEs” value in data set [1] (12.5 mcg/ml) came out at 19.6 ± 3.6%; in data set [1] (25 mcg/ml) it was 31.7 ± 3.5%; in data set [1] (50 mcg/ml), 44.8 ± 2.9%; in data set [1] (100 mcg/ml), 69.9 ± 3.5%. Besides, the “Renal MDA” value in the data set with STZ-diabetic rats [2] turned out to be 8.82 ± 1.92 μM/mg protein. Further, the “Renal SOD activity” value in the data set with STZ-diabetic rats [2] is recorded as 1.78 ± 0.42 Unit/mg protein. Also, the “pancreatic level of AGEs (fluorescence)” value in data set [3] is listed as “effectively lowered”. Also, the “insulin immunostaining in the pancreatic islets” value in data set [4] is “no evident effect”. Also, the “reduction of 24-hr urinary albumin excretion compared with STZ-diabetic control group” value in the data set with STZ-diabetic rats [5] was determined as 37.3%. Moreover, the “body weight increase by the end of the experiment” value in the data set with STZ-diabetic rats [6] (12 weeks oral treatment) is on record as 44.0 g. In addition, the “Body weight (g) (after treatment)” value in the data set on STZ-diabetic rats [6] (oral gavage daily 12 weeks, HEM 500 mg/kg, AG 50 mg/kg, mean ± SD, n=8) came out at 258.6 ± 8.1 g. In addition, the “AGE-fluorescence in the kidney cortex” value in the data set on STZ-diabetic rats [7] worked out at 3.4 ± 0.5 AU/mg protein. Moreover, the “CML-AGE in the kidney cortex” value in the data set with STZ-diabetic rats [7] worked out at 262.8 ± 55.4 ng/mg protein. Besides, the “accumulation of AGEs (fluorescent AGEs and CML-AGE) in the descending aorta” value in the data set on STZ-diabetic rats [8] was “effectively reduced”.
